The values that follow are results of earlier work, collected in patent US9629360B2, “Water-based pesticidal suspension” (priority 2010, dated 2017).

The conditions of the data set: 20° C.

In brackets after ≈: the same amount, converted by molar mass.

Take `COP(=O)(OC)SCn1c(=O)oc2cc(Cl)cnc21` [azamethiphos]: the aqueous solubility was 1100 µg/mL (≈ 3.39 mM). For `Cc1nc(N(C)C)nc(OC(=O)N(C)C)c1C` [pirimicarb], the aqueous solubility was 3100 µg/mL (≈ 13 mM).
